PMC6271529, “Studies on the Anticonvulsant Activity and Influence on GABA-ergic Neurotransmission of 1,2,4-Triazole-3-thione-Based Compounds” (Molecules, 2014)
Read-outs that look alike come from different tables or passages of the source.

Experiments:
[1] = system: maximal electroshock-induced seizures; test: Maximal electroshock-induced seizure (MES) test in mice; format: in vivo, mouse; settings: for p/t, number of animals protected against MES-induced seizures / number tested / responders at 300 mg/kg: 300 mg/kg i.p.; for responders at 300 mg/kg / ED50: Mus musculus, ip; for responders at 300 mg/kg: read-out: percent of animals protected against MES-induced seizures; for PI (TD50/ED50): protective index; for onset of action: significant protection as early as 15 min after parenteral administration, MES
Procedure, shortened: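 Mice given compound i.p. (300 mg/kg screen, then graded doses) 15, 30, 60 or 120 min before ear-clip electroshock (25 mA, 50 Hz, 0.2 s); tonic hind limb extension scored as seizure. ED50 (dose protecting 50% of animals) from Litchfield–Wilcoxon dose-response lines.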

[2] = system: GABAA receptors; test: Radioligand binding assay, [3H]muscimol, rat cerebral cortex; settings: for Percent of Specific Binding, GABAA: compound 1 × 10^−6 M, [3H]muscimol, rat cerebral cortex; for effect of added compound on affinity of GABA to GABAA receptors: radioligand binding, GABA in combination with compound;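 on Percent of Specific Binding, GABAA: low percentages indicate weak binding of the compound to the receptor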
Experimental: Binding experiments were conducted in 96-well microplates in a total volume of 200 μL of appropriate buffer. The reaction mixture included 50 μL solution of test compound, 50 μL of radioligand, and […] the tissue suspension. Rat cerebral cortex was used for each receptor. […] Radioligand binding data were analyzed using iterative curve fitting routines (GraphPAD/Prism, Version 3.0, San Diego, CA, USA). Ki values were calculated from the Cheng and Prusoff equation [36].

[3] = system: benzodiazepine (BDZ)-binding sites; test: Radioligand binding assay, [3H]flunitrazepam, rat cerebral cortex; settings: compound 1 × 10^−6 M;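 further: low percentages indicate weak binding of the compound to the site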
Experimental: Binding experiments were conducted in 96-well microplates in a total volume of 200 μL of appropriate buffer. The reaction mixture included 50 μL solution of test compound, 50 μL of radioligand, and […] the tissue suspension. Rat cerebral cortex was used for each receptor. The radioactivity was measured in MicroBeta TriLux 1450-liquid scintillation counter (PerkinElmer, Waltham, MA, USA). Radioligand binding data were analyzed using iterative curve fitting routines (GraphPAD/Prism, Version 3.0, San Diego, CA, USA). Ki values were calculated from the Cheng and Prusoff equation [36].

[4] = system: threshold for electroconvulsions; parameters: method as in PMID 22732650; settings: cited from earlier work
[5] = sub-protective doses of the compound co-administered with valproate; cited from earlier work
[6] = system: motor performance in mice; test: Chimney test (motor performance impairment, acute adverse effects); settings: i.p.
Experimental: Adult male Swiss mice (weighing 22–26 g) that were kept in colony cages with free access to food and tap water, housed under standardized housing conditions, were used. After seven days of adaptation to laboratory conditions, the animals were randomly assigned to experimental groups each comprised of eight mice. Each mouse was used only once. Procedures involving animals and their care were conducted in accordance with current European Community and Polish legislation on animal experimentation. The experimental protocols and procedures described in this manuscript were approved by the First Local Ethics Committee at the Medical University in Lublin and the Second Local Ethics Committee at the University of Life Sciences in Lublin and complied with the European Communities Council Directive of 24 November 1986 (86/609/EEC).
In this test, the animals had to climb backwards up a plastic tube (3 cm inner diameter, 30 cm length), and motor performance impairment was indicated by the inability of the mice to climb backward up the transparent tube within 60 s. […] To evaluate each TD50 value, at least four groups of animals (each group consisted of eight mice) injected with various doses of the appropriate compound were challenged with the chimney test. A dose-response relationship line was calculated on the basis of the percentage of mice showing motor deficits by means of the log-probit method according to Litchfield and Wilcoxon.

[7] = pretreatment time 120 min, mice
[8] = 0.25 h, pretreatment time 15 min, mice
[9] = 0.5 h, pretreatment time 30 min, mice
[10] = 1 h, pretreatment time 60 min, mice
[11] = 2 h, pretreatment time 120 min, mice
[12] = pretreatment time 15 min, mice, read-out: ED50 ± S.E. (MES test)
[13] = pretreatment time 30 min, mice, read-out: ED50 ± S.E. (MES test)
[14] = pretreatment time 60 min, mice, read-out: ED50 ± S.E. (MES test)
[15] = pretreatment time 120 min, mice, read-out: ED50 ± S.E. (MES test)
[16] = chimney TD50 / MES ED50, pretreatment time 15 min
[17] = chimney TD50 / MES ED50, pretreatment time 30 min
[18] = chimney TD50 / MES ED50, pretreatment time 60 min
[19] = chimney TD50 / MES ED50, pretreatment time 120 min

## S=c1[nH]nc(-c2cccc(Cl)c2)n1-c1ccc(Br)cc1 [Compound 6a, 4-(4-Bromophenyl)-5-(3-chlorophenyl)-2,4-dihydro-3H-1,2,4-triazole-3-thione]
[1]; pretreatment time 15 min, mice
  p/t, number of animals protected against MES-induced seizures / number tested: 4/8
[1]; pretreatment time 30 min, mice
  p/t, number of animals protected against MES-induced seizures / number tested: 6/8
[1]; pretreatment time 60 min, mice
  p/t, number of animals protected against MES-induced seizures / number tested: 6/8
[1]; [7]
  p/t, number of animals protected against MES-induced seizures / number tested: 3/8
[1]; MES test, mice
  anticonvulsant activity (in words): slightly weaker than that of valproate
[1]; [8]
  responders at 300 mg/kg: 50%
[1]; [9]
  responders at 300 mg/kg: 75%
[1]; [10]
  responders at 300 mg/kg: 75%
[1]; [11]
  responders at 300 mg/kg: 37.5%
[1]; [12]
  ED50: 298 ± 21.1 mg/kg
[1]; [13]
  ED50: 218 ± 21.7 mg/kg
[1]; [14]
  ED50: 209 ± 27.3 mg/kg
[1]; [15]
  ED50: 336 ± 14 mg/kg
[1]; [16]
  PI (TD50/ED50): 1.2
[1]; [17]
  PI (TD50/ED50): 1.8
[1]; [18]
  PI (TD50/ED50): 1.9
[1]; [19]
  PI (TD50/ED50): 1.3
[1]; mice
  onset of action: quick onset of action
[2]
  Percent of Specific Binding, GABAA: 17%
  effect of added compound on affinity of GABA to GABAA receptors: did not lead to an increase
[3]
  Percent of Specific Binding, BDZ: 20%
[4]
  elevation of the threshold for electroconvulsions: 70%

## Cc1ccc(-n2c(-c3cccc(Cl)c3)n[nH]c2=S)cc1 [Compound 10a, 5-(3-Chlorophenyl)-4-(4-methylphenyl)-2,4-dihydro-3H-1,2,4-triazole-3-thione]
[1]; pretreatment time 15 min, mice
  p/t, number of animals protected against MES-induced seizures / number tested: 8/8
[1]; pretreatment time 30 min, mice
  p/t, number of animals protected against MES-induced seizures / number tested: 8/8
[1]; pretreatment time 60 min, mice
  p/t, number of animals protected against MES-induced seizures / number tested: 8/8
[1]; [7]
  p/t, number of animals protected against MES-induced seizures / number tested: 6/8
[1]; read-out: ED50 ± S.E. (MES test), i.p., pretreatment time 15 min, mice
  ED50: 57 ± 9.4 mg/kg
[1]; read-out: ED50 ± S.E. (MES test), i.p., pretreatment time 30 min, mice
  ED50: 74.5 ± 8.1 mg/kg
[1]; read-out: ED50 ± S.E. (MES test), i.p., pretreatment time 60 min, mice
  ED50: 187 ± 18.8 mg/kg
[1]; read-out: ED50 ± S.E. (MES test), i.p., pretreatment time 120 min, mice
  ED50: 281 ± 13.6 mg/kg
[1]; [16]
  PI (TD50/ED50): 5.9
[1]; [17]
  PI (TD50/ED50): 4.5
[1]; [18]
  PI (TD50/ED50): 1.8
[1]; [19]
  PI (TD50/ED50): 1.4
[1]; mice
  onset of action: quick onset of action
[2]
  Percent of Specific Binding, GABAA: 2%
  effect of added compound on affinity of GABA to GABAA receptors: did not lead to an increase
[3]
  Percent of Specific Binding, BDZ: 9%
[5]
  elevation of total brain concentration of valproate: 52%

## Fc1ccccc1-n1c(-c2ccc(Cl)cc2)n[nH]c1=S [Compound 12a, 5-(4-Chlorophenyl)-4-(2-fluorophenyl)-2,4-dihydro-3H-1,2,4-triazole-3-thione]
[1]; pretreatment time 15 min, mice
  p/t, number of animals protected against MES-induced seizures / number tested: 6/8
[1]; pretreatment time 30 min, mice
  p/t, number of animals protected against MES-induced seizures / number tested: 6/8
[1]; pretreatment time 60 min, mice
  p/t, number of animals protected against MES-induced seizures / number tested: 7/8
[1]; [7]
  p/t, number of animals protected against MES-induced seizures / number tested: 7/8
[1]; [8]
  responders at 300 mg/kg: 75%
[1]; [9]
  responders at 300 mg/kg: 75%
[1]; [10]
  responders at 300 mg/kg: 87.5%
[1]; [11]
  responders at 300 mg/kg: 87.5%
[1]; [12]
  ED50: 208 ± 25.3 mg/kg
[1]; [13]
  ED50: 186 ± 24.6 mg/kg
[1]; [14]
  ED50: 218 ± 21.7 mg/kg
[1]; [15]
  ED50: 209 ± 27.3 mg/kg
[1]; pretreatment times 15, 30, 60, 120 min, read-out: ED50 (MES), range over pretreatment times
  ED50: 186 to 218 mg/kg
[1]; [16]
  PI (TD50/ED50): 2.6
[1]; [17]
  PI (TD50/ED50): 2.7
[1]; [18]
  PI (TD50/ED50): 1.9
[1]; [19]
  PI (TD50/ED50): 2.3
[1]; mice
  onset of action: quick onset of action
[2]
  Percent of Specific Binding, GABAA: 13%
[3]
  Percent of Specific Binding, BDZ: 18%
other
  melting point: 240 to 242 °C

## S=c1[nH]nc(-c2ccc(Cl)cc2)n1-c1ccccc1Br [Compound 15a, 4-(2-Bromophenyl)-5-(4-chlorophenyl)-2,4-dihydro-3H-1,2,4-triazole-3-thione]
[1]; pretreatment time 15 min, mice
  p/t, number of animals protected against MES-induced seizures / number tested: 6/8
[1]; pretreatment time 30 min, mice
  p/t, number of animals protected against MES-induced seizures / number tested: 8/8
[1]; pretreatment time 60 min, mice
  p/t, number of animals protected against MES-induced seizures / number tested: 8/8
[1]; [7]
  p/t, number of animals protected against MES-induced seizures / number tested: 7/8
[1]; [8]
  responders at 300 mg/kg: 75%
[1]; [9]
  responders at 300 mg/kg: 100%
[1]; [10]
  responders at 300 mg/kg: 100%
[1]; [11]
  responders at 300 mg/kg: 87.5%
[1]; [12]
  ED50: 183 ± 25.1 mg/kg
[1]; [13]
  ED50: 105 ± 16.5 mg/kg
[1]; [14]
  ED50: 137 ± 19.9 mg/kg
[1]; [15]
  ED50: 176 ± 25 mg/kg
[1]; [16]
  PI (TD50/ED50): 1.5
[1]; [17]
  PI (TD50/ED50): 2.4
[1]; [18]
  PI (TD50/ED50): 1.8
[1]; [19]
  PI (TD50/ED50): 1.4
[1]; mice
  onset of action: quick onset of action
[2]
  Percent of Specific Binding, GABAA: 8%
[3]
  Percent of Specific Binding, BDZ: 21%
other
  melting point: 250 to 252 °C

## CSc1ccc(-n2c(-c3ccc(Cl)cc3)n[nH]c2=S)cc1 [Compound 17a, 5-(4-Chlorophenyl)-4-[4-(methylsulfanyl)phenyl]-2,4-dihydro-3H-1,2,4-triazole-3-thione]
[1]; pretreatment time 15 min, mice
  p/t, number of animals protected against MES-induced seizures / number tested: 0/8
[1]; pretreatment time 30 min, mice
  p/t, number of animals protected against MES-induced seizures / number tested: 0/8
[1]; pretreatment time 60 min, mice
  p/t, number of animals protected against MES-induced seizures / number tested: 1/8
[1]; [7]
  p/t, number of animals protected against MES-induced seizures / number tested: 0/8
[1]; [8]
  responders at 300 mg/kg: 0%
[1]; [9]
  responders at 300 mg/kg: 0%
[1]; [10]
  responders at 300 mg/kg: 12.5%
[1]; [11]
  responders at 300 mg/kg: 0%
[2]
  Percent of Specific Binding, GABAA: 21%
[3]
  Percent of Specific Binding, BDZ: 6%
other
  melting point: 214 to 216 °C

## CCCC(CCC)C(=O)O [Valproate, Magnesium valproate]
[1]; [13]
  ED50: 217 ± 9.4 mg/kg
[1]; [14]
  ED50: 218 ± 18.9 mg/kg
[1]; [15]
  ED50: 247 ± 21.6 mg/kg
[6]; pretreatment time 15 min
  TD50 ± S.E. (chimney test): 363.3 ± 14.2 mg/kg
[6]; pretreatment time 30 min
  TD50 ± S.E. (chimney test): 372.9 ± 16.9 mg/kg
[6]; pretreatment time 60 min
  TD50 ± S.E. (chimney test): 417.3 ± 9.5 mg/kg
[6]; pretreatment time 120 min
  TD50 ± S.E. (chimney test): 512.3 ± 20.2 mg/kg
